Reference: patent US20240158446A1, “CYCLIC COMPOUND HAVING SELECTIVE INHIBITORY ACTION ON KRAS OVER HRAS AND NRAS” (CHUGAI SEIYAKU KABUSHIKI KAISHA, priority 2021, published 2024)
Where a SMILES comes first, the peptide text is derived from it. Bridges are numbered along the chain shown (N, C = ends). [ ]: non-standard residue; d: D form. The star is where a group is joined. hPhe(3-Cl-4-CF3) = N[C@@H](CCc1ccc(C(F)(F)F)c(Cl)c1)C(=O)O; NPrPhe(4-CF3) = CCCN[C@@H](Cc1ccc(C(F)(F)F)cc1)C(=O)O; Abu(4,4,4-F3) = N[C@@H](CC(F)(F)F)C(=O)O; Morpholine(3S-CO) = O=C(O)[C@@H]1COCCN1; NMeGly(cPent) = CN[C@H](C(=O)O)C1CCCC1; NMeD = CN[C@@H](CC(=O)O)C(=O)O; NMeL = CN[C@@H](CC(C)C)C(=O)O; hPip = O=C(O)[C@@H]1CCCCCN1; Morpholide = C1CN(*)CCO1; NMeA = CN[C@@H](C)C(=O)O; Ac5c = NC1(C(=O)O)CCCC1; Aze = O=C(O)[C@@H]1CCN1; NPrGly = CCCNCC(=O)O; NEtG = CCNCC(=O)O; Sar = CNCC(=O)O

Columns and labels:
[1] = target: GDP-bound HRAS wild-type protein (Homo sapiens, UniProt P01112); test: Binding to HRAS by surface plasmon resonance (SPR), Single Cycle Kinetics; conditions: SPR, GDP-bound HRAS wild-type protein vs GDP-bound KRAS wild-type protein
GDP-bound HRAS wild-type protein, sequence (P01112 whole entry): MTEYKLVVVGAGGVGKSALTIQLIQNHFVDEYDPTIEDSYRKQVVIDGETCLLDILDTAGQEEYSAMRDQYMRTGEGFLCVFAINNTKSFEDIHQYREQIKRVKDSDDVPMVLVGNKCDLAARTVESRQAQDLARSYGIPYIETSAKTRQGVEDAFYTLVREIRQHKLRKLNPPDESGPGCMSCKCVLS

[2] = target: GDP-bound KRAS wild-type protein (Homo sapiens, UniProt P01116); test: Binding to KRAS by surface plasmon resonance (SPR), Single Cycle Kinetics; conditions: SPR Single Cycle Kinetics, GDP-bound KRAS wild-type protein, 1:1 binding model; read-out: KRAS KD
GDP-bound KRAS wild-type protein, sequence (P01116 whole entry): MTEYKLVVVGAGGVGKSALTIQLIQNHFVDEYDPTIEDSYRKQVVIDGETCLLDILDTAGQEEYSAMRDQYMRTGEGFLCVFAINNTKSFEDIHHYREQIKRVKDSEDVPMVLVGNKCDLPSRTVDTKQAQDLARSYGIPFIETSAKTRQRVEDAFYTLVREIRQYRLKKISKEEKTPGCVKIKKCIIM

[3] = target: GDP-bound NRAS wild-type protein (Homo sapiens, UniProt P01111); test: Binding to NRAS by surface plasmon resonance (SPR), Single Cycle Kinetics; conditions: SPR, GDP-bound NRAS wild-type protein vs GDP-bound KRAS wild-type protein
GDP-bound NRAS wild-type protein, sequence (P01111 whole entry): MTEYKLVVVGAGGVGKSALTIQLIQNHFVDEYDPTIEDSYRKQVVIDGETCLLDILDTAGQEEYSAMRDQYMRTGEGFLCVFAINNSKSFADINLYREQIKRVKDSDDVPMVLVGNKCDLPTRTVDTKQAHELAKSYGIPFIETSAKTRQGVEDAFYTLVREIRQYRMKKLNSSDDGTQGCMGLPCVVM

| Structure (SMILES) | HRAS/KRAS (ratio of KD value for HRAS to KD value for KRAS) [1] | Kd [2] [pM] | NRAS/KRAS (ratio of KD value for NRAS to KD value for KRAS) [3] |
| --- | --- | --- | --- |
| CCCN1C(=O)[C@@H]2CCN2C(=O)[C@H](C)N(C)C(=O)[C@H]([C@@H](C)CC)NC(=O)[C@H](CC(C)C)N(C)C(=O)C[C@@H](C(=O)N2CCOCC2)N(C)C(=O)[C@H](C2CCCC2)N(C)C(=O)C2(CCCC2)NC(=O)[C@@H]2COCCN2C(=O)[C@H](CCc2ccc(C(F)(F)F)c(Cl)c2)NC(=O)CN(C)C(=O)[C@@H]1Cc1ccc(C(F)(F)F)cc1 [PP0286] ([NMeL]I[NMeA][Aze][NPrPhe(4-CF3)][Sar][hPhe(3-Cl-4-CF3)][Morpholine(3S-CO)][Ac5c][NMeGly(cPent)][NMeD]-Morpholide; lactam N-11) | B (a compound having 3 or more and less than 10 is denoted as B) | 520 | C (A compound having a KD ratio of 0.1 or more and less than 3 is denoted as C) |
| CCCN1C(=O)[C@@H]2CCN2C(=O)[C@H](C)N(C)C(=O)[C@H]([C@@H](C)CC)NC(=O)[C@H](CC(C)C)N(C)C(=O)C[C@@H](C(=O)N2CCOCC2)N(C)C(=O)[C@H](C2CCCC2)N(C)C(=O)C2(CCCC2)NC(=O)CN(C)C(=O)[C@H](CCc2ccc(C(F)(F)F)c(Cl)c2)NC(=O)CN(C)C(=O)[C@@H]1Cc1ccc(C(F)(F)F)cc1 [PP0287] ([NMeL]I[NMeA][Aze][NPrPhe(4-CF3)][Sar][hPhe(3-Cl-4-CF3)][Sar][Ac5c][NMeGly(cPent)][NMeD]-Morpholide; lactam N-11) | C (A compound having a KD ratio of 0.1 or more and less than 3 is denoted as C) | 260 | C (A compound having a KD ratio of 0.1 or more and less than 3 is denoted as C) |
| CCCN1CC(=O)NC2(CCCC2)C(=O)N(C)[C@@H](C2CCCC2)C(=O)N(C)[C@H](C(=O)N2CCOCC2)CC(=O)N(C)[C@@H](CC(C)C)C(=O)N[C@@H]([C@@H](C)CC)C(=O)N(C)[C@@H](C)C(=O)N2CC[C@H]2C(=O)N(CCC)[C@@H](Cc2ccc(C(F)(F)F)cc2)C(=O)N(C)CC(=O)N[C@@H](CCc2ccc(C(F)(F)F)c(Cl)c2)C1=O [PP0288] ([NMeL]I[NMeA][Aze][NPrPhe(4-CF3)][Sar][hPhe(3-Cl-4-CF3)][NPrGly][Ac5c][NMeGly(cPent)][NMeD]-Morpholide; lactam N-11) | B (a compound having 3 or more and less than 10 is denoted as B) | 420 | C (A compound having a KD ratio of 0.1 or more and less than 3 is denoted as C) |
| CCCN1C(=O)CN(C)C(=O)CN(CC)C(=O)[C@H]([C@@H](C)CC)NC(=O)[C@@H]2CCCCCN2C(=O)C[C@@H](C(=O)N2CCOCC2)N(C)C(=O)[C@H](C2CCCC2)N(C)C(=O)C2(CCCC2)NC(=O)[C@@H]2CCCN2C(=O)[C@H](CCc2ccc(C(F)(F)F)c(Cl)c2)NC(=O)CN(C)C(=O)[C@@H]1Cc1ccc(C(F)(F)F)cc1 [PP0289] ([hPip]I[NEtG][Sar][NPrPhe(4-CF3)][Sar][hPhe(3-Cl-4-CF3)]P[Ac5c][NMeGly(cPent)][NMeD]-Morpholide; lactam N-11) | B (a compound having 3 or more and less than 10 is denoted as B) | 2200 | B (a compound having 3 or more and less than 10 is denoted as B) |
| CCCN1C(=O)CN(C)C(=O)CN(CC)C(=O)[C@H](CC(F)(F)F)NC(=O)[C@H](CC(C)C)N(C)C(=O)C[C@@H](C(=O)N2CCOCC2)N(C)C(=O)[C@H](C2CCCC2)N(C)C(=O)C2(CCCC2)NC(=O)[C@@H]2CCCN2C(=O)[C@H](CCc2ccc(C(F)(F)F)c(Cl)c2)NC(=O)CN(C)C(=O)[C@@H]1Cc1ccc(C(F)(F)F)cc1 [PP0291] ([NMeL][Abu(4,4,4-F3)][NEtG][Sar][NPrPhe(4-CF3)][Sar][hPhe(3-Cl-4-CF3)]P[Ac5c][NMeGly(cPent)][NMeD]-Morpholide; lactam N-11) | B (a compound having 3 or more and less than 10 is denoted as B) | 2200 | B (a compound having 3 or more and less than 10 is denoted as B) |
